Results on four molecules are retold here after US20100099693A1, “NEW COMBINATION FOR USE IN THE TREATMENT OF INFLAMMATORY DISORDERS” (priority 2007, published 2010).

The test system of experiment [1] is MonoMac-6 (MM6) cells. The experiment in a line: MonoMac-6 macrophage proliferation assay (WST-1 reagent). The format is cell-based, human. The conditions noted are these: single drug, 48 hours; for inhibition at 10 µM / inhibition at 30 µM / inhibition at 100 µM: Homo sapiens, MONO-MAC-6, WST-1, mean n=4; for inhibition at 10 µM: final concentration 10 μM; for inhibition at 30 µM: final concentration 30 μM; for inhibition at 100 µM: final concentration 100 μM. How it is done: Cells from the human macrophage cell-line MonoMac-6 (MM6) (Ziegler-Heitbrock et al, Int. J. Cancer, 41, 456 (1988)) were cultured (37° C./5% CO2) in RPMI-1640 medium supplemented with 1 mM sodium pyruvate, 1× nonessential amino acids, 1-100 μg/mL insulin, 1 mM oxalacetic acid, 100 units/mL penicillin, 100 μg/mL streptomycin and 10% (v/v) fetal bovine serum. At the start of the experiment, MM6 cells were seeded in 96-well plates at a density of 1×10^5 cells/mL (100 μl per well). Proliferation of the MM6 cells was measured using the Cell Proliferation Reagent WST-1 (Roche Diagnostics Scandinavia AB, Bromma, Sweden) or by cell counting using a microscope. The WST-1 reagent is designed to be used for spectrophotometric quantification of e.g. cell growth in proliferation assays and was used according to the manufacturers' instructions. The wavelength for measuring absorbance was 450 nm and the absorbance of all untreated control cells exposed to the WST-1 reagent was between 1.0 and 2.5. Stock solutions of ramatroban (sodium salt; ramatroban was purchased from Cayman Chemical, Ann Arbor, Mich., USA as free acid and converted to sodium salt by adding one equivalent of aqueous NaOH) and rosuvastatin (sodium salt; rosuvastatin was extracted and purified from commercially available Crestor® tablets and isolated as sodium salt as described in Bioorganic & Medicinal Chemistry, Vol. 5, No. 5, pp 437-444, 1997) were made in sterile saline.
The effects of ramatroban and/or rosuvastatin (added at the start of the experiments) on MM6 cell proliferation were studied 48 hours after start of the experiments using the WST-1 reagent described above.
The procedure described in Example 19 was repeated for atorvastatin (sodium salt; received as atorvastatin calcium as a gift from Biocon, Ltd., Bangalore, India and converted into sodium salt by firstly converting the calcium salt into the free acid by addition of aqueous hydrochloric acid and then, after isolation via extraction, adding one equivalent of aqueous NaOH).
The procedure described in Example 19 was repeated for simvastatin (sodium salt; simvastatin was received as the lactone as a gift from Biocon, Ltd., Bangalore, India and isolated as the sodium salt following lactone ring opening via hydrolysis using one equivalent of NaOH in water and ethanol at 60° C.).
For orientation: Tetrazolium dyes change colour on reduction, which living cells bring about.

Experiment [2] has as its system Rat aortic smooth muscle cells (RASMC). The experiment in a line: Rat aortic smooth muscle cell proliferation assay (WST-1 reagent, 5% FBS stimulated). The format is cell-based. The conditions noted are these: single drug, 48 hours, F-12/5% FBS; for inhibition at 0.1 µM: final concentration 0.1 μM; for inhibition at 0.1 µM / inhibition at 1 µM / inhibition at 10 µM: mean n=3; for inhibition at 1 µM: final concentration 1 μM; for inhibition at 10 µM: final concentration 10 μM. How it is done:
Rat aortic smooth muscle cells (RASMC) were isolated as previously described (Hellin et al, Arterioscler. Thromb. Vasc. Biol., 17, 1977 (1997)). The cells were cultired (37° C./5% CO2) in Ham's medium F-12 supplemented with 10% fetal bovine serum (FBS), 50 μg/mL L-ascorbic acid, 50 μg/mL streptomycin and 50 IU/mL penicillin (F-12/10% FBS), grown to confluence, serially passaged by trypsinization, and used in experiments after 2-7 passages. The RASMC were seeded in 96-well plates at a density of approximately 5×10^3 cells per well in F-12/10% FBS (100 μl per well). After 72 hours, the cells were synchronized in G0/G1 phase by starvation in Ham's medium F-12 supplemented with 0.1% bovine serum albumin (BSA), 50 μg/mL L-ascorbic acid, 50 μg/mL streptomycin and 50 IU/mL penicillin (F-12/0.1% BSA) for 48 hours. After the starvation, the cells were 70-80% confluent. The experiment was then started by changing to F-12 medium containing 5% FBS, 50 μg/mL L-ascorbic acid, 50 μg/mL streptomycin and 50 IU/mL penicillin (F-12/5% FBS), without (positive control cells) or with the test drugs (drug treated cells) as described below. For comparison, some cells remained in F-12/0.1% BSA (negative control cells).
Proliferation of the RASMC cells was measured using the Cell Proliferation Reagent WST-1 (Roche Diagnostics Scandinavia AB, Bromma, Sweden). The WST-1 reagent is designed to be used for spectrophotometric quantification of e.g. cell growth in proliferation assays and was used according to the manufacturers' instructions. The wavelength for measuring absorbance was 450 nm and the absorbance of all untreated positive control cells exposed to the WST-1 reagent was between 1 and 2.7.
Stock solutions of ramatroban (sodium salt; see Example 19 above) and rosuvastatin (sodium salt; see Example 19 above) were made in sterile saline.
48 hours after start of the experiment as described above, the mean positive control RASMC proliferation (measured using the WST-1 reagent) was 225% of that of the negative control RASMC (n=12 in both groups). The effects of ramatroban and/or rosuvastatin (added to cells in F-12/5% FBS at the start of the experiment) on RASMC proliferation were studied 48 hours after start of the experiment.
The procedure described in Example 22 was repeated for atorvastatin (sodium salt; see Example 20 above).
The procedure described in Example 22 was repeated for simvastatin (sodium salt; see Example 21 above).

As usually defined, the inhibition is how much of the control response was suppressed.

On to `CC(C)c1c(C(=O)Nc2ccccc2)c(-c2ccccc2)c(-c2ccc(F)cc2)n1CC[C@@H](O)C[C@@H](O)CC(=O)O` [atorvastatin], for which, in experiment [1], the inhibition at 10 µM worked out at 16.8%, the inhibition at 30 µM turned out to be 27.8% and the inhibition at 100 µM was 71.7%. In experiment [2], this molecule gave an inhibition at 0.1 µM of 27.4%, an inhibition at 1 µM of 0% and an inhibition at 10 µM of 18.9%.
Turning to `O=C(O)CCn1c2c(c3ccccc31)C[C@H](NS(=O)(=O)c1ccc(F)cc1)CC2` [ramatroban], the inhibition at 100 µM in experiment [1] is 15.2%; in experiment [2] (final concentration 100 μM, mean n=6), 11.9%. Further, the “effect on MM6 proliferation (in words)” value in experiment [1] (10 μM, data not shown) was “effect similar to that of 100 μM of ramatroban”.
In the case of `CC(C)c1nc(N(C)S(C)(=O)=O)nc(-c2ccc(F)cc2)c1/C=C/[C@@H](O)C[C@@H](O)CC(=O)O` [rosuvastatin], in experiment [1], 10 µM produced 11.5% inhibition, the inhibition at 30 µM is 31.2% and the inhibition at 100 µM was determined as 70.1%. In experiment [2], this molecule yielded an inhibition at 0.1 µM of 5.3%, an inhibition at 1 µM of 0% and an inhibition at 10 µM of 21.7%.
With `CCC(C)(C)C(=O)O[C@H]1C[C@@H](C)C=C2C=C[C@H](C)[C@H](CC[C@@H]3C[C@@H](O)CC(=O)O3)[C@H]21` [simvastatin], in experiment [1], at 10 µM the inhibition was 21.3%, the inhibition at 30 µM was 68.1% and the inhibition at 100 µM is 85%. For the same molecule, in experiment [2], the inhibition at 0.1 µM worked out at 23.8%, at 1 µM the inhibition was 0% and the inhibition at 10 µM was determined as 74.3%.
